Test results: patent EP4407316A1, “PROTEASOMAL DEGRADATION OF PROTEINS” (Katholieke Universiteit Leuven, KU Leuven R&D, priority 2023, dated 2024)
pIC50: −log10 of the molar value.

How the values were obtained:
[1] = tested on: ASB8 knockout and overexpressing cells; test: MTS cell viability assay in ASB8 knockout and ASB8 overexpressing cells; type: cell-based, human; conditions: HAP1 four days, KMS-28BM six days of treatment
From the text: (§1) Figure 4. XPO1 protein degradation is regulated by ASB8. a-b Sensitization profile of HAP1 cells with either knockout or overexpression of ASB8 under selection with selinexor. Cell viability when transduced with a safe-targeting or ASB8 targeting sgRNA (a). Cell viability when transduced with a non-coding stuffer sequence or ASB8 coding sequence at two different multiplicities of infection (MOI) (b). After four days of treatment with compound at the indicated concentrations, cell viability was measured by MTS assay. Data were normalized to untreated cells and represent mean ±SD of three separate experiments performed in triplicate. IC50 values were compared with control using an extra sum-of-squares F-test. c-d Monitoring of XPOL degradation in HAP1 cells with western blot. Comparison of cells stably transduced with a safe-targeting versus ASB8 targeting sgRNA (c) or with a stuffer sequence versus ASB8 coding sequence (d). Cells were treated overnight with selinexor and bortezomib as indicated. […]
(§2) Figure 10. a Viability of KMS-28BM cells stably transduced with a stuffer or ASB8 coding lentiviral vector and treated with different concentrations of selinexor. b-e Viability of ASB8 knockout and ASB8 overexpressing HAP1 cells treated with different concentrations of KPT-9274 (b, c) or ispinesib (d, e). f-g Viability of ASB8 overexpressing KMS-28BM cells treated with different concentrations of KPT-9274 (f) or ispinesib (g). After four days (HAP1) or six days (KMS-28BM) of treatment with compound at the indicated concentrations, cell viability was measured by MTS assay. […] IC50 values were compared with control using an extra sum-of-squares F-test. h Representative images of fluorescence microscopy imaging of subcellular ASB8 localization. […]
HAP1 cells were seeded in 96-well plates at 2500 cells/well in 100 µL medium. […] For each experiment, absorbance measurements of three replicate wells were averaged. […]

[2] = tested on: HAP1 cells; test: Live cell count to establish selinexor IC values for CRISPR screening; type: cell-based; conditions: Homo sapiens, 96 h, live cells counted after four days and compared to untreated control flask
From the text: To detect gene loss-of-function events that modulate sensitivity to XPO1 inhibition, we conducted genome-wide CRISPR-Cas9 screens in cells under selection with selinexor. We selected HAP1 cells for our initial screen as this chronic myeloid leukemia cell line is a relevant model^66,67 and has suitable characteristics for CRISPR screening, including a high proliferation rate and transduction efficiency. HAP1 cells were transduced with the Brunello genome-wide CRISPR knockout library in the one-vector configuration, in which sgRNA and Cas9 are expressed from a single lentiviral construct. Cells were split into control (DMSO) and selinexor-treated arms, further divided into three replicates per arm and passaged in parallel for 24 days (Fig. 1a). Selinexor was used at a concentration of 100 nM, corresponding to the IC50, i.e., the concentration at which the live cell count in the treated arm was half of that in the control arm after […]. At each passage, cells were harvested and per arm, an equal number of cells was reseeded with fresh compound. […]
To establish IC values for screening, cells were seeded in 150-cm^2 flasks and treated with selinexor at different concentrations for four days after which live cells were counted and compared to an untreated control flask. […]

[3] = biological target: T1, XPO1 (Homo sapiens, UniProt O14980); test: Western blot (Simple Western) monitoring XPO1 degradation in HAP1 cells; type: cell-based; conditions: for XPO1 degradation: overnight treatment
T1 construct: endogenous in cells
T1 sequence (O14980 whole entry): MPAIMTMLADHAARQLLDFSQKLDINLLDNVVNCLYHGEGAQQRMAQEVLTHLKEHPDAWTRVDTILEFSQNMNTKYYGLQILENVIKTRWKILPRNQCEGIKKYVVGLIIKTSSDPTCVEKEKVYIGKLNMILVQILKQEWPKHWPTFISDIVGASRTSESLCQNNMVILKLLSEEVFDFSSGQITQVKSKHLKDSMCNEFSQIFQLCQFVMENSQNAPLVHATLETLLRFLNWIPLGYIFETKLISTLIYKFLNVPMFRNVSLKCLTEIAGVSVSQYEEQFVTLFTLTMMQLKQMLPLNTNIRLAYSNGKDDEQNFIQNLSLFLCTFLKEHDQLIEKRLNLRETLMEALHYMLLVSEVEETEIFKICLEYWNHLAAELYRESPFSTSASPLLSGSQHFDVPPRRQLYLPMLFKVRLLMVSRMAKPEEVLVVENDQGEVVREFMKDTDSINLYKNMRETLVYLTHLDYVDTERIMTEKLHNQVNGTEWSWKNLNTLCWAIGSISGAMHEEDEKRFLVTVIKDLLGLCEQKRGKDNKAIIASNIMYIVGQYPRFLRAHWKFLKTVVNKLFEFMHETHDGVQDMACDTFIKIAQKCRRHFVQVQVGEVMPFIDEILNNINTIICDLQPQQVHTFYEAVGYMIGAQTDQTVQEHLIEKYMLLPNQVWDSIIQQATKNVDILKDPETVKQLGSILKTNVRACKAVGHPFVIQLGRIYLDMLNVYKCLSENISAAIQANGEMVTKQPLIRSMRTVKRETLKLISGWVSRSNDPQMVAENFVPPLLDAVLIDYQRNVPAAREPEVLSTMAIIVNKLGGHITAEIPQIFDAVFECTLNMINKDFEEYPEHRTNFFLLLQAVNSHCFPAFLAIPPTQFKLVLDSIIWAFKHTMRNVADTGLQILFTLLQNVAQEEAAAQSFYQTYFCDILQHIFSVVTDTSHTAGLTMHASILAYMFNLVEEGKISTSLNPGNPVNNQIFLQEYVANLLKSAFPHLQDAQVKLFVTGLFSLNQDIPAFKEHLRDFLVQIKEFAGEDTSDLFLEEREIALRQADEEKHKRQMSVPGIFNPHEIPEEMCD
From the text: Figure 4. XPO1 protein degradation is regulated by ASB8. a-b Sensitization profile of HAP1 cells with either knockout or overexpression of ASB8 under selection with selinexor. Cell viability when transduced with a safe-targeting or ASB8 targeting sgRNA (a). Cell viability when transduced with a non-coding stuffer sequence or ASB8 coding sequence at two different multiplicities of infection (MOI) (b). After four days of treatment with compound at the indicated concentrations, cell viability was measured by MTS assay. Data were normalized to untreated cells and represent mean ±SD of three separate experiments performed in triplicate. IC50 values were compared with control using an extra sum-of-squares F-test. c-d Monitoring of XPOL degradation in HAP1 cells with western blot. Comparison of cells stably transduced with a safe-targeting versus ASB8 targeting sgRNA (c) or with a stuffer sequence versus ASB8 coding sequence (d). Cells were treated overnight with selinexor and bortezomib as indicated. Cells were harvested and total lysates were probed for XPO1 and TUBB (β-tubulin) protein levels. e Time-of-drug-addition assay in HAP1 cells harboring a stuffer or ASB8 coding sequence (MOI=0.2). Duration of treatment with selinexor is as indicated. For bortezomib, length of treatment was 24 h for all conditions. f Selinexor-induced degradation of XPO1 in HAP1 cells with an endogenous Cys528Ser mutation introduced by CRISPR-mediated homology-directed repair. Following stable transduction of XPOL wild-type and mutant cells with a stuffer or ASB8 coding sequence (MOI=0.2), cells were treated overnight with compound as indicated.
For the experiments monitoring XPO1 degradation, HAP1 cells were seeded in 6-well plates at 100,000 cells/mL. The next day, cells were treated with selinexor and/or bortezomib as indicated. The pan-caspase inhibitor Q-VD-OPh was added to all conditions at 10 µM final concentration to delay onset of apoptosis. Cells were treated with compound overnight or as indicated. Next, cells were harvested, washed with ice-cold PBS and lysed in RIPA buffer (Thermo Fisher Scientific) with 1× HALT Protease Inhibitor Cocktail (Thermo Fisher Scientific) on ice for 20 min. Cell debris was removed by centrifugation at 20.000 × g and 4 °C for 10 min and total protein content was quantified with the Pierce BCA Protein Assay kit (Thermo Fisher Scientific). We used an automated, capillary-based Simple Western size assay (Wes, ProteinSimple) to detect and quantify our proteins of interest. 5 µL of lysate at a final concentration of 200 µg/mL was loaded onto the assay plate. For detection, the following primary antibodies and dilutions were used: CRM1/XPO1 (NB100-79802, Novus, 1:1000), TUBB (NB600-936, Novus, 1:40) and FLAG (F4049, Sigma-Aldrich, 1:250). […]

[4] = biological target: T2, ASB8 interacts with XPO1 (Homo sapiens, UniProt O14980); test: Co-immunoprecipitation of XPO1 with FLAG-ASB8 in HEK293T cells; type: binding; conditions: HEK293T cells co-transfected with XPO1 and FLAG-ASB8; 15 minutes treatment; higher concentrations
T2 construct: expressed in transfected cells; host or cells: HEK293T cells, transient transfection (TurboFectin 8.0)
T2 sequence (O14980 whole entry): as above
T2 sequence (Q9H765 whole entry partner): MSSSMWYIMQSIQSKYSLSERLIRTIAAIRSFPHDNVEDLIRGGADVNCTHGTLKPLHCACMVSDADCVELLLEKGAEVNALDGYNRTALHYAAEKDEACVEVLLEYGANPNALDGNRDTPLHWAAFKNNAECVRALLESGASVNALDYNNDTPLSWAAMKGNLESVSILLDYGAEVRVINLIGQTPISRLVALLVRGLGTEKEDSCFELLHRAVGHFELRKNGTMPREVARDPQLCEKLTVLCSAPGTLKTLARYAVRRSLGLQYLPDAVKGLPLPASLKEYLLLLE
Experimental: Figure 5. ASB8 interacts with XPO1. HEK293T cells were transiently transfected with XPO1 alone or together with either FLAG-ASB8 or FLAG-luc2 plasmids. After 24 hours, selinexor was added at the indicated concentrations and cells were incubated for 15 minutes. Next, cells were collected and incubated with lysis buffer for 20 minutes (whole-cell lysate, WCL). From these lysates, FLAG fusions were pulled down and co-immunoprecipitation of XPO1 was checked with western blot (IP: FLAG).
as §2
The protocol for lysis and co-immunoprecipitation was modified from an earlier report^64. […] After 15 min of incubation, cells were harvested and counted. […]

[5] = tested on: RL cells; test: Live cell count to establish selinexor IC values for CRISPR screening; type: cell-based; conditions: Homo sapiens, 96 h, live cells counted after four days and compared to untreated control flask
Experimental: (§3) To establish IC values for screening, cells were seeded in 150-cm^2 flasks and treated with selinexor at different concentrations for four days after which live cells were counted and compared to an untreated control flask. HAP1, KMS-28BM and SK-MM-1 cells were screened with the one-vector library encoding both sgRNA and Cas9 while for DS and RL cells, the two-vector library, which uses two separate vectors for the sgRNA and Cas9, was used. Cells were transduced at a MOI of approximately 0.25 and a coverage of >200-fold. Puromycin-selected cells were allowed to recover for 4-7 days after which selection with selinexor started. […] In addition, KMS-28BM were also screened at IC20, corresponding to a concentration of 40 nM. Finally, for every cell line, a no-drug condition was included (DMSO). For each condition, three parallel replicates containing at least 20 × 10^6 cells each were initiated after puromycin selection and maintained independently throughout screening and downstream processing. Cells were passaged every 2-4 days and cell pellets of 20 × 10^6 were collected at regular intervals. Screening continued for >20 cell doublings, more precisely until day 24, 42, 28, 28 and 25 for HAP1, KMS-28BM, SK-MM-1, DS and RL cells, respectively.

[6] = tested on: DS cells; test: as above; type: cell-based; conditions: Homo sapiens, 96 h, live cells counted after four days and compared to untreated control flask
Experimental: as §3

[7] = tested on: KMS-28BM cells; test: as above; type: cell-based; conditions: Homo sapiens, 96 h, live cells counted after four days and compared to untreated control flask
Experimental: as §3

[8] = tested on: SK-MM-1 cells; test: as above; type: cell-based; conditions: Homo sapiens, 96 h, live cells counted after four days and compared to untreated control flask
Experimental: as §3

[9] = biological target: T3, XPO1 Cys528Ser mutation (Homo sapiens, UniProt O14980, C528S); test: Western blot (Simple Western) monitoring XPO1 degradation in HAP1 XPO1 C528S mutant cells; type: cell-based; conditions: HAP1 cells with endogenous XPO1 Cys528Ser mutation; control and ASB8 overexpressing; overnight treatment
T3 construct: HAP1 cells with an endogenous Cys528Ser mutation introduced by CRISPR-mediated homology-directed repair; endogenous in cells
T3 sequence (O14980 whole entry C528S): as the sequence (O14980 whole entry) above, with C528S counted along it
From the text: as §1, with “(d).” for “(d). Cells were treated overnight with selinexor and bortezomib as indicated.”
For the experiments monitoring XPO1 degradation, HAP1 cells were seeded in 6-well plates at 100,000 cells/mL. […] Cell debris was removed by centrifugation at 20.000 × g and 4 °C for 10 min and total protein content was quantified with the Pierce BCA Protein Assay kit (Thermo Fisher Scientific). We used an automated, capillary-based Simple Western size assay (Wes, ProteinSimple) to detect and quantify our proteins of interest. […]

[10] = tested on: ASB8; test: Immunofluorescence staining of subcellular ASB8 localization in HAP1 cells; type: cell-based, human; conditions: stable FLAG-ASB8 expressing HAP1 cells; 200 nM overnight
From the text: Figure 10. a Viability of KMS-28BM cells stably transduced with a stuffer or ASB8 coding lentiviral vector and treated with different concentrations of selinexor. b-e Viability of ASB8 knockout and ASB8 overexpressing HAP1 cells treated with different concentrations of KPT-9274 (b, c) or ispinesib (d, e). f-g Viability of ASB8 overexpressing KMS-28BM cells treated with different concentrations of KPT-9274 (f) or ispinesib (g). After four days (HAP1) or six days (KMS-28BM) of treatment with compound at the indicated concentrations, cell viability was measured by MTS assay. Data were normalized to untreated cells and represent mean ±SD of two or three separate experiments performed in triplicate. IC50 values were compared with control using an extra sum-of-squares F-test. h Representative images of fluorescence microscopy imaging of subcellular ASB8 localization. HAP1 cells with a stably integrated FLAG-ASB8 or a non-coding stuffer sequence were treated overnight with DMSO or 200 nM selinexor. Cells were fixed and stained with a primary anti-FLAG antibody. Nuclei were stained with DAPI. Figure 11. Co-immunoprecipitation of XPO1 with ASB8. HEK293T cells were transiently transfected with XPOL together with either FLAG-ASB8 or KPNA3-FLAG (control) plasmids. After 24 hours, selinexor was added at the indicated concentrations and cells were incubated for an additional 15 minutes. […]

In the case of `Cc1ccc(C(=O)N(CCCN)[C@@H](c2nc3cc(Cl)ccc3c(=O)n2Cc2ccccc2)C(C)C)cc1` [ispinesib], the “sensitivity (dose-response) in ASB8 knockout and overexpressing cells versus control” value [1] was “no difference in response”.
With `O=C(/C=C\n1cnc(-c2cc(C(F)(F)F)cc(C(F)(F)F)c2)n1)NNc1cnccn1` [selinexor] the pIC50 [2] was 7.00, the “sensitivity (dose-response) in ASB8 knockout and overexpressing cells versus control” value [1] was “increased sensitivity” and the XPO1 degradation ([3]; HAP1 ASB8 knockout cells) was “did not observe selinexor-induced XPOL degradation to the same extent”. The XPO1 degradation ([3]; HAP1 ASB8 overexpressing cells, with and without bortezomib) was “XPO1 was profoundly depleted even in the presence of bortezomib”, the XPO1 degradation ([3]; HAP1 control cells with safe-targeting sgRNA) was “dose-dependent degradation of XPO1” and the “amount of XPO1 co-immunoprecipitated with FLAG-ASB8” value [4] was “increased the amount of immunoprecipitated XPO1”. For the same compound, the pIC50 [5] was 7.40, the pIC50 [6] was 6.70 and the IC20 [7] was 40 nM. For the same compound, the pIC50 [7] was 6.90, the pIC50 [8] was 6.85 and the XPO1 degradation [9] was “did not trigger XPO1 degradation”. The “nuclear accumulation of ASB8” value [10] was “did not observe nuclear accumulation of ASB8”.
With `Nc1ccc(/C=C/C(=O)NCc2cc3cc(-c4ccc(C(=O)N5CCC(F)(F)CC5)cc4)cc(-c4ccc(F)cc4)c3o2)cn1` [KPT-9274] the “sensitivity (dose-response) in ASB8 knockout and overexpressing cells versus control” value [1] was “no difference in response”.
In the case of `CC(C)C[C@H](NC(=O)[C@H](Cc1ccccc1)NC(=O)c1cnccn1)B(O)O` [bortezomib], the “effect on selinexor-induced XPO1 degradation” value ([3]; HAP1 control cells with safe-targeting sgRNA, co-treatment with selinexor overnight) was “prevented”.
